According to article PMC2747657 (Bioorganic & medicinal chemistry, 2009):
Where two headings read alike, the source gives them in different places.

Assays:
NET [1] = target: T1, NET (Rattus norvegicus, UniProt Q63380); experiment: Inhibition of [3H]nisoxetine binding at the NET
5-HTT = 5-HTT (Rattus norvegicus, UniProt P31652); experiment: Inhibition of [3H]paroxetine binding at the 5-HTT; settings: for Ki: 5-HTT, Ki [3H]paroxetine; for NET/5-HTT Ratio: ratio of Ki values of NET/5-HTT, selectivity for the 5-HTT relative to the NET
DAT = DAT (Rattus norvegicus, UniProt P23977); experiment: Inhibition of [3H]WIN35,428 binding at the DAT
NET [2] = target: T1, NET; settings: read-out: NET, Ki [3H]nisoxetine; inhibition of [3H]nisoxetine binding; cited from earlier work
[3] = relative to N-methyl compound 7a

5-HTT, sequence (P31652 whole entry): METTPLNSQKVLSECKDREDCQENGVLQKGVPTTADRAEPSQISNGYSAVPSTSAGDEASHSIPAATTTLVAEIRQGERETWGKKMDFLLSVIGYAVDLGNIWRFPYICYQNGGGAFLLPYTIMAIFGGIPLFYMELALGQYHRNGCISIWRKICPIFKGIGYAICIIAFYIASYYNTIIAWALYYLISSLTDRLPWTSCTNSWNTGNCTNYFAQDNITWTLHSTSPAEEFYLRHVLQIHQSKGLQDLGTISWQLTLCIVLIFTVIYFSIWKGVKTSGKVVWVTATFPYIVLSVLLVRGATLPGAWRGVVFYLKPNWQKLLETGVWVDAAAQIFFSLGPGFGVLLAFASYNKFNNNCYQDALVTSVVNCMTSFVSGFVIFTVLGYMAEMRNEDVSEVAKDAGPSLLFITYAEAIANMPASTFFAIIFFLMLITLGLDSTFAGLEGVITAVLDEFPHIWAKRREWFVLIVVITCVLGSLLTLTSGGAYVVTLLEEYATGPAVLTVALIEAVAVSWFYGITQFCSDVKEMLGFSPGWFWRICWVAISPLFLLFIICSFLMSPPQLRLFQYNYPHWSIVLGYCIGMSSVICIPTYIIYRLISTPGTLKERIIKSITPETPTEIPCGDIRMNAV
T1 sequence (Q63380 1-617): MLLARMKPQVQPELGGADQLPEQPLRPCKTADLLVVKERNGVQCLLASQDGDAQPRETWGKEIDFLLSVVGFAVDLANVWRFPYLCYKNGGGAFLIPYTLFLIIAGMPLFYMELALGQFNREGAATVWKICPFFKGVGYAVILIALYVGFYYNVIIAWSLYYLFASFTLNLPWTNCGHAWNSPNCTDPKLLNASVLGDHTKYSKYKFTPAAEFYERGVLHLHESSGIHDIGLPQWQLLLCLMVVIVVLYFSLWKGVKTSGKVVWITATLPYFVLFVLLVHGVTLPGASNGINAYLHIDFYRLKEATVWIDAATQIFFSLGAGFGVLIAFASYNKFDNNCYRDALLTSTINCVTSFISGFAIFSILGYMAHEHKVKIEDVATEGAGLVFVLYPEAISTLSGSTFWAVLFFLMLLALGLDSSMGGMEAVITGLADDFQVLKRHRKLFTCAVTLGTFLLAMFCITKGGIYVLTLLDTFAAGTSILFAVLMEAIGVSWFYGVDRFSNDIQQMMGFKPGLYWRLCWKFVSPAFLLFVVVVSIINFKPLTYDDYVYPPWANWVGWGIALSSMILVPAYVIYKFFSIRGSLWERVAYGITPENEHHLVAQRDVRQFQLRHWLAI
DAT, sequence (P23977 whole entry): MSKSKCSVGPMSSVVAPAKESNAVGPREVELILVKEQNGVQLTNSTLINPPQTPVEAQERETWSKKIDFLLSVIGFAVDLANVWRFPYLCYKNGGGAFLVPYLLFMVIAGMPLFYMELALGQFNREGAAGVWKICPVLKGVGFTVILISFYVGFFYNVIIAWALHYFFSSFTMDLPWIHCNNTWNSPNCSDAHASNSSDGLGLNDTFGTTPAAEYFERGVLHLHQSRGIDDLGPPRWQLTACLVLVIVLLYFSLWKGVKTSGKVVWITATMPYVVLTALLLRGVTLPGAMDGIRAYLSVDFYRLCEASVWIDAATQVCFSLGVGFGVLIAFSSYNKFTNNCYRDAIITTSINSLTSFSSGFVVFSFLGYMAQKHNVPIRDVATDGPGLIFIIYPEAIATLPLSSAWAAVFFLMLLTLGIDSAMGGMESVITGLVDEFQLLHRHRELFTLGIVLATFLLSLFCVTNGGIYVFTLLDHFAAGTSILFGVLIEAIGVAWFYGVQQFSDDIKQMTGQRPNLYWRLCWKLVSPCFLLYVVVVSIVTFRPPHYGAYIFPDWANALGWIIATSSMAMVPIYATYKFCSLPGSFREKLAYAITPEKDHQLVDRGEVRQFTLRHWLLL

Compound	Ki (NET [1]) [nM]	Ki (5-HTT) [nM]	also measured
COC(=O)[C@H]1[C@@H](c2ccc(SC)cc2)C[C@@H]2CC[C@H]1N2C [7a, 3β-(4-Methylthiophenyl)tropane-2β-carboxylic acid methyl ester]	220 ± 10	220	NET/5-HTT Ratio (5-HTT): 314-364
CCSc1ccc([C@H]2C[C@@H]3CC[C@H]([C@H]2C(=O)OC)N3C)cc1 [7b, 3β-(4-Ethylthiophenyl)tropane-2β-carboxylic acid methyl ester]	1170 ± 300	4.5 ± 0.5	–
COC(=O)[C@H]1[C@@H](c2ccc(SC(C)C)cc2)C[C@@H]2CC[C@H]1N2C [7c, 3β-(4-Isopropylthiophenyl)tropane-2β-carboxylic acid methyl ester]	129 ± 2	129	–
COC(=O)[C@H]1[C@@H](c2ccc(SC(F)(F)F)cc2)C[C@@H]2CC[C@H]1N2C [7d, 3β-(4-Trifluoromethylthiophenyl)tropane-2β-carboxylic acid methyl ester]	1900 ± 300	–	–
COC(=O)[C@H]1[C@@H](c2ccc(SC)c(Br)c2)C[C@@H]2CC[C@H]1N2C [7e, 3β-(3-Bromo-4-methylthiophenyl)tropane-2β-carboxylic acid methyl ester]	121 ± 12	–	–
COC(=O)[C@H]1[C@@H](c2ccc([S+](C)[O-])c(Br)c2)C[C@@H]2CC[C@H]1N2C (stereo partly drawn) [7f, 3β-(3-bromo-4-methylsulfinylphenyl)tropane-2β-carboxylic acid methyl ester]	690 ± 80	–	–
COC(=O)[C@H]1[C@@H](c2ccc([S+](C)[O-])cc2)C[C@@H]2CC[C@H]1N2C (stereo partly drawn) [7g, 3β-(4-methylsulfinylphenyl)tropane-2β-carboxylic acid methyl ester]	515 ± 60	4.3 ± 0.6	–
COC(=O)[C@H]1[C@@H](c2ccc(S(C)(=O)=O)cc2)C[C@@H]2CC[C@H]1N2C [7h, 3β-(4-Methylsulfonylphenyl)tropane-2β-carboxylic acid methyl ester]	> 10000	208 ± 45	IC50 (DAT): > 10000 nM
COC(=O)[C@@H]1C2CCC(C[C@@H]1c1ccc(SC)cc1)N2 (stereo partly drawn) [8a, 3β-(4-Methylthiophenyl)nortropane-2β-carboxylic acid methyl ester]	–	–	fold increase in affinity at the NET (NET [1]; [3]): ~10 fold; fold increase in affinity at the 5-HTT (5-HTT; [3]): approximately 4 fold; fold less affinity at the DAT (DAT; [3]): 3 fold
COC(=O)[C@@H]1C2CCC(C[C@@H]1c1ccc(SC)cc1)N2CCCF (stereo partly drawn) [9a, 3β-(4-Methylthiophenyl)-8-(3-fluoropropyl)nortropane-2β-carboxylic acid methyl ester]	–	–	NET/5-HTT Ratio (5-HTT): 314-364
C=CCN1C2CCC1[C@@H](C(=O)OC)[C@@H](c1ccc(SC)cc1)C2 (stereo partly drawn) [10a, 3β-(4-Methylthiophenyl)-8-allylnortropane-2β-carboxylic acid methyl ester]	–	–	NET/5-HTT Ratio (5-HTT): 314-364
COC(=O)[C@H]1[C@@H](c2ccc(OC)cc2)C[C@@H]2CC[C@H]1N2C [compound 5, 3β-(4-methoxyphenyl)tropane-2β-carboxylic acid methyl ester]	–	–	Ki (NET [2]): 1110 ± 64 nM
